Patent US8871681B2, “Herbicidal compositions comprising 4-amino-3-chloro-5-fluoro-6-(4-chloro-2-fluoro-3-methoxyphenyl) pyridine-2-carboxylic acid or a derivative thereof and certain sulfonylureas” (Dow AgroSciences LLC, priority 2012, dated 2014)

Columns and labels:
[1] = system: VERPE (Veronica persica, bird's-eye speedwell); assay: Post-emergence foliar-applied weed control in cereal crops, greenhouse (Example III); assay type: in vivo, Veronica persica Poir.
Experimental: (§1) Seeds of the desired test plant species were planted in Sun Gro MetroMix® 306 planting mixture, which typically has a pH of 6.0 to 6.8 and an organic matter content of about 30 percent, in plastic pots with a surface area of 103.2 square centimeters (cm^2). When required to ensure good germination and healthy plants, a fungicide treatment and/or other chemical or physical treatment was applied. The plants were grown for 7-36 days in a greenhouse with an approximate 14 hour photoperiod which was maintained at about 18° C. during the day and 17° C. during the night. Nutrients and water were added on a regular basis and supplemental lighting was provided with overhead metal halide 1000-Watt lamps as necessary. The plants were employed for testing when they reached the second or third true leaf stage.
(§2) Treatments consisted of the benzyl ester of 4-amino-3-chloro-5-fluoro-6-(4-chloro-2-fluoro-3-methoxy-phenyl)pyridine-2-carboxylic acid (Compound A), formulated as an SC (suspension concentrate), and a second cereal herbicide alone and in combination.
(§3) Measured aliquot of benzyl ester of 4-amino-3-chloro-5-fluoro-6-(4-chloro-2-fluoro-3-methoxy-phenyl)pyridine-2-carboxylic acid (Compound A) was placed in 25 milliliter (mL) glass vials and diluted in a volume of 1.25% (v/v) Agri-dex crop oil concentrated to obtain stock solutions. Compound requirements are based upon a 12 mL application volume at a rate of 187 liters per hectare (L/ha). Spray solutions of the second cereal herbicide and experimental compound mixtures were prepared by adding the stock solutions to the appropriate amount of dilution solution to form 12 mL spray solution with active ingredients in two- and three-way combinations. Formulated compounds were applied to the plant material with an overhead Mandel track sprayer equipped with an 8002E nozzle calibrated to deliver 187 L/ha over an application area of 0.503 square meters (m^2) at a spray height of 18 inches (46 cm) above average plant canopy. Control plants were sprayed in the same manner with the solvent blank.
(§4) The treated plants and control plants were placed in a greenhouse as described above and watered by sub-irrigation to prevent wash-off of the test compounds. After 20-22 days, the condition of the test plants as compared with that of the control plants was determined visually and scored on a scale of 0 to 100 percent where 0 corresponds to no injury and 100 corresponds to complete kill.
(§5) Colby's equation was used to determine the herbicidal effects expected from the mixtures (Colby, S. R. 1967. Calculation of the synergistic and antagonistic response of herbicide combinations. Weeds 15:20-22.).
(§6) The following equation was used to calculate the expected activity of mixtures containing two active ingredients, A and B: Expected=A+B−(A×B/100)

[2] = system: CIRAR (Cirsium arvense, Canada thistle); assay: as above; assay type: in vivo, Cirsium arvense (L.) Scop.; conditions: foliar-applied, after 20-22 days
Experimental: as §1, §2, §3, §4, §5, §6

[3] = system: BRAPP (Brachiaria platyphylla, broadleaf signalgrass); assay: Postemergence foliar-applied weed control, direct seeded rice, greenhouse (Example I); assay type: in vivo, Brachiaria platyphylla (Griseb.) Nash; conditions: Urochloa platyphylla, post-emergence
From the text: (§7) Seeds or nutlets of the desired test plant species were planted in a soil matrix prepared by mixing a loam or sandy loam soil (e.g., 28.6 percent silt, 18.8 percent clay, and 52.6 percent sand, with a pH of about 5.8 and an organic matter content of about 1.8 percent) and calcareous grit in an 80 to 20 ratio. The soil matrix was contained in plastic pots with a volume of 1 quart and a surface area of 83.6 square centimeters (cm^2). When required to ensure good germination and healthy plants, a fungicide treatment and/or other chemical or physical treatment was applied. The plants were grown for 8-22 days in a greenhouse with an approximate 14 h photoperiod which was maintained at about 29° C. during the day and 26° C. during the night. Nutrients (Peters Excel® 15-5-15 5-Ca 2-Mg and iron chelate) were applied in the irrigation solution as needed and water was added on a regular basis. Supplemental lighting was provided with overhead metal halide 1000-Watt lamps as necessary. The plants were employed for testing when they reached the first through fourth true leaf stage.
(§8) Treatments consisted of the acid or esters of 4-amino-3-chloro-5-fluoro-6-(4-chloro-2-fluoro-3-methoxy-phenyl)pyridine-2-carboxylic acid (Compound A), each formulated as an SC, and various herbicidal components alone and in combination. Forms of compound A were applied on an acid equivalent basis.
(§9) Other herbicidal components were applied on an active ingredient basis and included acetolactate synthase (ALS)-inhibiting herbicides (sulfonylurea chemical class) azimsulfuron formulated as Gulliver®, bensulfuron-methyl formulated as Londax® 60DF, cyclosulfamuron (technical material), ethoxysulfuron formulated as Sunrice® 15 WDG, flazasulfuron formulated as Katana®, flucetosulfuron formulated as Sukedachi® 1KG G, foramsulfuron formulated as Option®, imazosulfuron formulated as Brazzos® WG, iodosulfuron-methyl-sodium formulated as Hussar®, metsulfuron-methyl formulated as Lorate®, nicosulfuron formulated as Accent®, orthosulfamuron formulated as Strada® WG, primisulfuron-methyl (technical material), propyrisulfuron formulated as Zeta One®, rimsulfuron formulated as Matrix® WG, sulfometuron-methyl formulated as Oust®, and trifloxysulfuron-sodium formulated as Monument® 75WG.
(§10) Treatment requirements were calculated based upon the rates being tested, the concentration of active ingredient or acid equivalent in the formulation, and a 12 mL application volume at a rate of 187 L/ha.
(§11) For treatments comprised of formulated compounds, measured amounts of compounds were placed individually in 25 mL glass vials and diluted in a volume of 1.25% (v/v) Agri-Dex® crop oil concentrated to obtain 12× stock solutions. […] Application solutions were prepared by adding an appropriate amount of each stock solution (e.g., 1 mL) and diluted to the appropriate final concentrations with the addition of 10 mL of an aqueous mixture of 1.25% (v/v) crop oil concentrate so that the final spray solutions contained 1.25+/−0.05% (v/v) Agrcrop oil concentrate.
(§12) For treatments comprised of formulated and technical compounds, weighed amounts of the technical materials were placed individually in 25 mL glass vials and dissolved in a volume of 97:3 v/v acetone/DMSO to obtain 12× stock solutions, and measured amounts of the formulated compounds were placed individually in 25 mL glass vials and diluted in a volume of 1.25% (v/v) crop oil concentrate to obtain 12× stock solutions. […] Application solutions were prepared by adding an appropriate amount of each stock solution (e.g., 1 mL) and diluted to the appropriate final concentrations with the addition of an appropriate amount of an aqueous mixture of 1.5% (v/v) crop oil concentrate so that the final spray solutions contained 1.25% (v/v) crop oil concentrate. […]

[4] = system: ISCRU (Ischaemum rugosum, saramollagrass); assay: as above; assay type: in vivo, Ischaemum rugosum Salisb.; conditions: 21 DAA
From the text: as §7, §8, §9, §10, §11, §12

[5] = system: CYPIR (Cyperus iria, rice flatsedge); assay: as above; assay type: in vivo, Cyperus iria L.; conditions: 22 DAA
From the text: as §7, §8, §9, §10, §11, §12

[6] = system: ECHOR (Echinochloa oryzoides, early watergrass); assay: In-water applied weed control, transplanted paddy rice, greenhouse (Example II); assay type: in vivo, Echinochloa oryzoides (Ard.) Fritsch
Experimental: (§13) Weed seeds or nutlets of the desired test plant species were planted in puddled soil (mud) prepared by mixing a shredded, non-sterilized mineral soil (50.5 percent silt, 25.5 percent clay, and 24 percent sand, with a pH of about 7.6 and an organic matter content of about 2.9 percent) and water at a 1:1 volumetric ratio. The prepared mud was dispensed in 365 mL aliquots into 16-ounce (oz.) non-perforated plastic pots with a surface area of 86.59 square centimeters (cm^2) leaving a headspace of 3 centimeters (cm) in each pot. Rice seeds were planted in Sun Gro MetroMix® 306 planting mixture, which typically has a pH of 6.0 to 6.8 and an organic matter content of about 30 percent, in plastic plug trays. Seedlings at the second or third leaf stage of growth were transplanted into 860 mL of mud contained in 32-oz. non-perforated plastic pots with a surface area of 86.59 cm^2 4 days prior to herbicide application. The paddy was created by filling the headspace of the pots with 2.5 to 3 cm of water. When required to ensure good germination and healthy plants, a fungicide treatment and/or other chemical or physical treatment was applied. The plants were grown for 4-22 days in a greenhouse with an approximate 14 h photoperiod which was maintained at about 29′C during the day and 26° C. during the night. Nutrients were added as Osmocote® (19:6:12, N:P:K+minor nutrients) at 2 g per 16-oz. pot and 4 g per 32-oz. pot. Water was added on a regular basis to maintain the paddy flood, and supplemental lighting was provided with overhead metal halide 1000-Watt lamps as necessary. The plants were employed for testing when they reached the first through fourth true leaf stage.
(§14) Treatments consisted of the acid or esters of 4-amino-3-chloro-5-fluoro-6-(4-chloro-2-fluoro-3-methoxy-phenyl)pyridine-2-carboxylic acid (compound A) each formulated as an SC and various herbicidal components alone and in combination. Forms of compound A were applied on an acid equivalent basis.
(§15) Other herbicidal components were applied on an active ingredient basis and included acetolactate synthase (ALS)-inhibiting herbicides (sulfonylurea chemical class), azimsulfuron formulated as Gulliver®, bensulfuron-methyl formulated as Londax® 60DF, cyclosulfamuron (technical grade materail), ethoxysulfuron formulated as Sunrice® 15 WDG, flucetosulfuron formulated as Sukedachi® 1KG G, imazosulfuron formulated as Brazzos®, metsulfuron-methyl formulated as Lorate®, nicosulfuron formulated as Accent®, orthosulfamuron formulated as Strada® WG, propyrisulfuron formulated as Zeta One®, and rimsulfuron formulated as Matrix® WG.
(§16) Treatment requirements for each compound or herbicidal component were calculated based upon the rates being tested, the concentration of active ingredient or acid equivalent in the formulation, an application volume of 2 mL per component per pot, and an application area of 86.59 cm^2 per pot.
(§17) For formulated compounds, a measured amount was placed in an individual 100 or 200 mL glass vial and was dissolved in a volume of 1.25% (v/v) Agri-Dex® crop oil concentrate to obtain application solutions.
(§18) For technical grade compounds, a weighed amount was placed in an individual 100 to 200 mL glass vial and was dissolved in a volume of acetone to obtain concentrated stock solutions. […] The concentrated stock solutions obtained were diluted with an equivalent volume of an aqueous mixture containing 2.5% (v/v) crop oil concentrate so that the final application solutions contained 1.25% (v/v) crop oil concentrate.
(§19) Applications were made by injecting with a pipetter appropriate amounts of the application solutions, individually and sequentially, into the aqueous layer of the paddy. Control plants were treated in the same manner with the solvent blank. Applications were made so that all treated plant material received the same concentrations of acetone and crop oil concentrate. […]

[7] = system: LEFCH (Leptochloa chinensis, Chinese sprangletop); assay: as above; assay type: in vivo, Leptochloa chinensis (L.) Nees
Experimental: as §13, §14, §15, §16, §17, §18, §19

[8] = system: MATCH (Chamomilla chamomilla, scented mayweed); assay: Post-emergence foliar-applied weed control in cereal crops, greenhouse (Example III); assay type: in vivo, Chamomilla chamomilla (L.) Rydb.
Experimental: as §1, §2, §3, §4, §5, §6

[9] = system: ECHCG (Echinochloa crusgalli, barnyardgrass); assay: Postemergence foliar-applied weed control, direct seeded rice, greenhouse (Example I); assay type: in vivo, Echinochloa crusgalli (L.) Beauv.; conditions: 27 DAA
From the text: as §7, §8, §9, §10, §11, §12

[10] = system: SCPMA (Bolboschoenus maritimus or Schoenoplectus maritimus, sea clubrush); assay: In-water applied weed control, transplanted paddy rice, greenhouse (Example II); assay type: in vivo, Bolboschoenus maritimus (L.) Palla
Experimental: as §13, §14, §15, §16, §17, §18, §19

[11] = Table 55, after 20-22 days, 3 gai/ha alone

## COC(=O)c1ccc(C(F)(F)F)nc1S(=O)(=O)NC(=O)Nc1nc(OC)cc(OC)n1 [Flupyrsulfuron-methyl sodium]
[1]; Table 53, after 20-22 days, 5 gai/ha alone
  Weed Control VERPE Obs: 0%
[2]; Cirsium arvense, post-emergence, Table 53, 5 gai/ha alone, read-out: Weed Control CIRAR Obs
  pest or weed control at 5 g/ha: 75%

## CCOc1ccccc1OS(=O)(=O)NC(=O)Nc1nc(OC)cc(OC)n1 [Ethoxysulfuron, 2-ethoxyphenyl[[(4,6-dimethoxy-2-pyrimidinyl)amino]carbonyl]sulfamate, reference compound]
[3]; 528 h, 22 DAA, 7.5 gai/ha, read-out: Visual Weed Control (%) Obs
  pest or weed control at 7.5 g/ha: 0%
[3]; 528 h, 22 DAA, 15 gai/ha, read-out: Visual Weed Control (%) Obs
  pest or weed control at 15 g/ha: 0%
[3]; 528 h, 22 DAA, 30 gai/ha, read-out: Visual Weed Control (%) Obs
  pest or weed control at 30 g/ha: 0%
[4]; 17.5 gai/ha
  Visual Weed Control (%) Obs: 0%
[4]; 70 gai/ha
  Visual Weed Control (%) Obs: 0%
[5]; 7.5 gai/ha
  Visual Weed Control (%) Obs: 50%
[5]; 15 gai/ha
  Visual Weed Control (%) Obs: 50%
[5]; 30 gai/ha
  Visual Weed Control (%) Obs: 85%
[6]; Table 34, 7.5 gai/ha alone
  Visual Weed Control (%) - 22 DAA ECHOR Obs: 10%
[6]; Table 35, 7.5 gai/ha alone
  Visual Weed Control (%) - 22 DAA ECHOR Obs: 10%
[6]; Table 35, 15 gai/ha alone
  Visual Weed Control (%) - 22 DAA ECHOR Obs: 20%
[7]; Table 34, 15 gai/ha alone
  Visual Weed Control (%) - 22 DAA LEFCH Obs: 0%
[7]; Table 35, 7.5 gai/ha alone
  Visual Weed Control (%) - 22 DAA LEFCH Obs: 0%
[7]; Table 35, 15 gai/ha alone
  Visual Weed Control (%) - 22 DAA LEFCH Obs: 0%

## COC(=O)c1ccc(CNS(C)(=O)=O)cc1S(=O)(=O)NC(=O)Nc1nc(OC)cc(OC)n1 [Mesosulfuron-methyl]
[1]; [11]
  Weed Control VERPE Obs: 5%
[2]; Table 55, 3 gai/ha alone
  Weed Control CIRAR Obs: 78%
[8]; [11]
  Weed Control MATCH Obs: 40%

## COC(=O)c1ccccc1S(=O)(=O)NC(=O)N(C)c1nc(C)nc(OC)n1 [Tribenuron-methyl]
[2]; Cirsium arvense, post-emergence, Table 59 (cereal), 2.2 gai/ha alone, read-out: Weed Control CIRAR Obs
  pest or weed control at 2.2 g/ha: 50%
[8]; Table 59 (cereal), after 20-22 days, 2.2 gai/ha alone
  Weed Control MATCH Obs: 90%

## CCCCOC(=O)c1nc(-c2ccc(Cl)c(OC)c2F)c(F)c(N)c1Cl [Compound A n-Butyl Ester]
[3]; 504 h, read-out: Visual Weed Control (%) Obs, 21 DAA, 4.38 gae/ha
  pest or weed control at 4.38 g/ha: 0%
[3]; 504 h, read-out: Visual Weed Control (%) Obs, 21 DAA, 8.75 gae/ha
  pest or weed control at 8.75 g/ha: 40%
[9]; 4.38 gae/ha
  Visual Weed Control (%) Obs: 0%
[9]; 8.75 gae/ha
  Visual Weed Control (%) Obs: 0%
[6]; Table 30, 35 gae/ha alone
  Visual Weed Control (%) - 20 DAA ECHOR Obs: 28%
[6]; Table 30, 70 gae/ha alone
  Visual Weed Control (%) - 20 DAA ECHOR Obs: 45%
[10]; Table 40, 35 gae/ha alone
  Visual Weed Control (%) - 20 DAA SCPMA Obs: 0%
[10]; Table 40, 70 gae/ha alone
  Visual Weed Control (%) - 20 DAA SCPMA Obs: 0%
